The nature of one series: in vitro. The note with it: dog.
The next series deals with PC-3. In words: MTT anti-proliferative assay, PC-3. It counts as cell-based, human. The note with it: Homo sapiens, PC-3; MTT, 48 h. (In general: Tetrazolium assays rely on reduction of a dye to a coloured formazan, in cell work by metabolically active cells.)
The test system of a further series is A549. In words: MTT anti-proliferative assay, A549. The note with it: Homo sapiens, A549; MTT, 48 h. It counts as cell-based, human.
The next series deals with A375. In words: MTT anti-proliferative assay, A375. The series is classed as cell-based. The note with it: Homo sapiens, A-375, 48 h.
Another series has as its system HT-29. The experiment in a line: MTT anti-proliferative assay, HT-29. The series is classed as cell-based. The note with it: Homo sapiens, 48 h.
Another series has as its target T1, BRAF^V600E (Homo sapiens, UniProt P15056, V600E).
T1 construct: purchased Life Technologies
The experiment in a line: BRAF^V600E kinase inhibition, Z'-LYTE. It counts as biochemical. The note with it: for inhibition at 0.1 µM: 100 nM. The protocol:
The experiments were performed according to the instructions of the manufacturer, and single point concentration testing with two independent data points (n = 2). […] The IC50 values were calculated from the inhibition curves from two separate experiments.

Another series addresses ALK (Homo sapiens, UniProt Q9UM73). The experiment in a line: Kinase selectivity profile. It counts as biochemical.
The next series concerns the target ErbB4 (HER4) (Homo sapiens, UniProt Q15303). In words: Kinase selectivity profile. It counts as biochemical.
The next series deals with LTK (TYK1) (Homo sapiens, UniProt P29376). The experiment in a line: Kinase selectivity profile. It counts as biochemical.
The target in the next series is MST1R (RON) (Homo sapiens, UniProt Q04912). The experiment in a line: Kinase selectivity profile. The series is classed as biochemical.
Another series addresses FLT1 (VEGFR1) (Homo sapiens, UniProt P17948). In words: Kinase selectivity profile. The series is classed as biochemical.
Another series deals with VEGFR-2 (Homo sapiens, UniProt P35968). The experiment in a line: Kinase selectivity profile. The series is classed as biochemical.
The next series addresses LCK (Homo sapiens, UniProt P06239). The experiment in a line: Kinase selectivity profile. The series is classed as biochemical.
A further series has as its target ErbB2 (HER2) (Homo sapiens, UniProt P04626). The experiment in a line: Kinase selectivity profile. It counts as biochemical.
A further series addresses EPHA2 (Homo sapiens, UniProt P29317). The experiment in a line: Kinase selectivity profile. It counts as biochemical.
For a further series, the target named is PTK2 (FAK) (Homo sapiens, UniProt Q05397). In words: Kinase selectivity profile. The series is classed as biochemical.
In the next series the test system is A375 cell line. In words: Flow cytometric analysis of cell cycle distribution. It counts as cell-based, human. The note with it: for G0/G1 (%) / G2/M (%) / S (%) / Sub-G1 (%): 48 h. The protocol: The effect of compound 1v on cell cycle phase distribution of human malignant melanoma A375 was assessed using flow cytometry. When the cells grew to about 70% confluence in 6-well microplates, they were treated with compound 1v at given concentrations (6.11 μmol/L, 12.21 μmol/L, 24.42 μmol/L). After 48 h, cells were harvested by trypsinization, washed with PBS, and fixed in 70% ice cold (4 °C) ethanol overnight. They were then washed with PBS, incubated with Ribonuclease (RNase) ([…] final concentration) at 37 °C for 30 min, stained with propidium iodide ([…] final concentration), and analyzed by flow cytometry (BD FACS Canto II, BD Biosciences, San Jose, CA, USA).
(A flow cytometer gives signals particle by particle.)

Another series has as its target FLT4 (VEGFR3) (Homo sapiens, UniProt P35916). The experiment in a line: Kinase selectivity profile. The series is classed as biochemical.
A further series deals with AURKA (Aurora A) (Homo sapiens, UniProt O14965). In words: Kinase selectivity profile. The series is classed as biochemical.
Sequence of AURKA (Aurora A) (O14965 whole entry): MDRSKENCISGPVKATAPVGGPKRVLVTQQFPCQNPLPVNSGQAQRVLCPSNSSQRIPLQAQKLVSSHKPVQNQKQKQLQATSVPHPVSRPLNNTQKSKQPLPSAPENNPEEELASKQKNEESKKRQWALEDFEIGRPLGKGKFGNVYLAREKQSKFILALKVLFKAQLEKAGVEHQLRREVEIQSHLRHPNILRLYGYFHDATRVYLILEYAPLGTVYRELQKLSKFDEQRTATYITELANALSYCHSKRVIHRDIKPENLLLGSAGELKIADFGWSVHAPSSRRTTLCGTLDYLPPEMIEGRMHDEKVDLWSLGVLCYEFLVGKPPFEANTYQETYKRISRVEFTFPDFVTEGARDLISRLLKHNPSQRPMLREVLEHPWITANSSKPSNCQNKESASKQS
The target of a further series is AURKB (Aurora B) (Homo sapiens, UniProt Q96GD4). In words: Kinase selectivity profile. The series is classed as biochemical.
Sequence of AURKB (Aurora B) (Q96GD4 whole entry): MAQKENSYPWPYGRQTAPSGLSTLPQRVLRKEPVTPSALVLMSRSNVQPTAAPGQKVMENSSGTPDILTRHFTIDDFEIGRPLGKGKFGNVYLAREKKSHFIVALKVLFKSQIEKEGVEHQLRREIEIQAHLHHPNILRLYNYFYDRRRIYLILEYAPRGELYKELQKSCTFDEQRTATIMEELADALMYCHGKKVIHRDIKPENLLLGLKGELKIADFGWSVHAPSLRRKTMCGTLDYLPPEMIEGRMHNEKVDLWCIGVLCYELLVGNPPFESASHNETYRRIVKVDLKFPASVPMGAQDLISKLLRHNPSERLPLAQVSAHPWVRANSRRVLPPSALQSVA
The target of the next series is ABL1 (Homo sapiens, UniProt P00519). The experiment in a line: Kinase selectivity profile. The series is classed as biochemical.
Sequence of ABL1 (P00519 whole entry): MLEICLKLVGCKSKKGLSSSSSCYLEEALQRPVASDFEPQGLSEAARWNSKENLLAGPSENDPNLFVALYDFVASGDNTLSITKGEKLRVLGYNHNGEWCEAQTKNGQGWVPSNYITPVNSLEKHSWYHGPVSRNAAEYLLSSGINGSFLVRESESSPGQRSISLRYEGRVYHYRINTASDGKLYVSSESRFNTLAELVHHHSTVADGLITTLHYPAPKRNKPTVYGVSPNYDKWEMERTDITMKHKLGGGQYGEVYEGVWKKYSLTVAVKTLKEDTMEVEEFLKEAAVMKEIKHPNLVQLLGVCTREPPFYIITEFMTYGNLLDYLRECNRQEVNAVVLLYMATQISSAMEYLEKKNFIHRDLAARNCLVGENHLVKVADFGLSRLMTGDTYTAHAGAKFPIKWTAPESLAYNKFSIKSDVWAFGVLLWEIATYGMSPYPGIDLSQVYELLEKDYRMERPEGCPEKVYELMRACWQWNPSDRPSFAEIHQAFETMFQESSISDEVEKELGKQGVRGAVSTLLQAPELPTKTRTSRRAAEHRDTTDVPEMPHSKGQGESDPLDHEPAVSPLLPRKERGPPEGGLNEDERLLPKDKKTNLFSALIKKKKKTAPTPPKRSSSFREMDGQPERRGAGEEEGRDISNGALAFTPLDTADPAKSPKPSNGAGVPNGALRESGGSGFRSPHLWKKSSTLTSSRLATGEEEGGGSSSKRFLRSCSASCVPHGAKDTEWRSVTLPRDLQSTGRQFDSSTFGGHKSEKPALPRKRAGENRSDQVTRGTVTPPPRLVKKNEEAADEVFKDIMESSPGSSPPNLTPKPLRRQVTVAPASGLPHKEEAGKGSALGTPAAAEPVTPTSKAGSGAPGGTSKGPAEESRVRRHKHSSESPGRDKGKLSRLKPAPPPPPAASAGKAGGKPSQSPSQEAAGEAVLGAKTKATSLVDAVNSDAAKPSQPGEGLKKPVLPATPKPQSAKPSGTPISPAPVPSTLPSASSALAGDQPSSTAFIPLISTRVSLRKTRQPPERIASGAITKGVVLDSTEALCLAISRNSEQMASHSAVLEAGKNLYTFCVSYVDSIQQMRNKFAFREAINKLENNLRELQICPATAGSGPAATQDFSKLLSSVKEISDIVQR
The target of the next series is EGFR (ErbB1) (Homo sapiens, UniProt P00533). In words: Kinase selectivity profile. The series is classed as biochemical.
Another series addresses RAF1 (CRAF) (Homo sapiens, UniProt P04049). In words: Kinase selectivity profile. It counts as biochemical.
For series [1], the system named is phosphor-MEK protein in A375 cell line. The experiment in a line: Western blot of phosphor-MEK, A375. It counts as cell-based, human. The note with it: A375, 48 h treatment. Here is the method: (§1) Total cells were harvested after treatment, washed twice with cold PBS, and lysed with RIPA lysis buffer (KeyGEN BioTECH, Nanjing, China) including 1% cocktail (Selleck Chemicals, Houston, TX, USA). Lysates were centrifuged at 12,000× g at 4 °C for 15 min, and the supernatant was collected. Total protein concentration was quantified using the bicinchoninic acid (BCA; Beyotime Institute of Biotechnology, Nanjing, China) protein assay kit (Sigma Chemical Co., St. Louis, MO, USA). The proteins were separated electrophoretically using 10% sodium dodecyl sulfate polyacrylamide gel electrophoresis (SDS-PAGE) and then the gel was transferred onto polyvinylidene fluoride (PVDF; Millipore, Billerica, MA, USA) membranes. […] The immunobands were detected with an enhanced chemiluminescence kit (Beyotime Institute of Biotechnology, Nanjing, China).
Background: Immunoblotting shows a protein as a band on a membrane.

The next series addresses MET (c-Met) (Homo sapiens, UniProt P08581). The experiment in a line: Kinase selectivity profile. The series is classed as biochemical.
In another series the target is ABL2 (Arg) (Homo sapiens, UniProt P42684). The experiment in a line: Kinase selectivity profile. The series is classed as biochemical.
Series [2] is described as follows: MTT cytotoxic assay, normal cell line MDCK. The note with it: dog, MDCK cells (normal cell line).
Protocol: (§2) All cell lines were purchased from Cell Bank of China Science Academy (Shanghai, China). All chemicals and solvents were purchased from Sigma-Aldrich (St. Louis, MO, USA) or Gibco (Gibco BRL, Grand Island, NY, USA). The PC-3 and A375 cell lines was maintained in Dulbecco's modified eagle (DEME) medium supplement with 10% fetal bovine serum (FBS) and 1% penicillin–streptomycin. The others were cultured in Roswell Park Memorial Institute (RPMI) 1640 medium supplement with 10% fetal bovine serum (FBS) and 1% penicillin–streptomycin. Approximately 5 × 10^3 cells, suspended in medium, were plated into each well of a 96-well plate and grown at 37 °C in a humidified atmosphere with 5% CO2 for 24 h. The following day, various concentrations of tested compounds were added to the culture medium and incubated for 48 h. Fresh MTT was added to each well at the terminal concentration of 5 mg/mL in phosphate buffered saline (PBS), and incubated with cells at 37 °C for 4 h. The formazan crystals in each well were dissolved in 150 μL DMSO, and the absorbency at 570 nm was measured with an enzyme-linked immunosorbent assay plate reader. All of the compounds were tested three times in each of the cell lines.
The next series deals with BRAF (wt) (Homo sapiens, UniProt P15056). The experiment in a line: Kinase selectivity profile. It counts as biochemical.
Sequence of BRAF (wt) (P15056 whole entry): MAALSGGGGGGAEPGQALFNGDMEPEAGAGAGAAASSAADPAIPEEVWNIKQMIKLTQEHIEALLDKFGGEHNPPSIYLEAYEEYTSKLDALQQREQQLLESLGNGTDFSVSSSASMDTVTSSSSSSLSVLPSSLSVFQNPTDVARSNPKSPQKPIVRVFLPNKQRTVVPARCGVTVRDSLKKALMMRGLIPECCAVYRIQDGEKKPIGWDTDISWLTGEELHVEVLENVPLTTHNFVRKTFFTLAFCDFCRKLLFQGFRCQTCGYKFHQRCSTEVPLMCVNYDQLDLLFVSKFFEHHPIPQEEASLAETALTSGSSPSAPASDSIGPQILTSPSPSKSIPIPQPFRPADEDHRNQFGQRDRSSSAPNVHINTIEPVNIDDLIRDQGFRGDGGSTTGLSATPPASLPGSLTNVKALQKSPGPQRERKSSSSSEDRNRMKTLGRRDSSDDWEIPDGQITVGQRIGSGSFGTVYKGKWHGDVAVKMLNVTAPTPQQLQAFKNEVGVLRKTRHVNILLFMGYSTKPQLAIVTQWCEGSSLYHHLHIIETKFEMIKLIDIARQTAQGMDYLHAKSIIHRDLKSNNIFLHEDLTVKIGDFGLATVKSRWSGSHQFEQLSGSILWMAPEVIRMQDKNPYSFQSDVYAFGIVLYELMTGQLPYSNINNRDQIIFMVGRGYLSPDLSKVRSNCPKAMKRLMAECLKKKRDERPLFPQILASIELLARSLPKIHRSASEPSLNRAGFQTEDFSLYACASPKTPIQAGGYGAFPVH
Series [3] concerns phosphor-MEK protein in HT-29 cell line. The experiment in a line: Western blot of phosphor-MEK, HT-29. It counts as cell-based, human. The note with it: HT-29, 48 h treatment. Here is the method: as §1
Setting [4] is: 1000 nM, average of two independent experiments.
Where [5] appears, read: average of two independent experiments.

Usually IC50 stands for the concentration at which inhibition is half-maximal. In general, melting point refers to the temperature, or range, at which the solid turns liquid. Broadly, the inhibition is the relative decrease from the control value, in per cent. A lower inhibition goes with a weak effect.

T1 sequence (P15056 whole entry V600E): as the sequence (P15056 whole entry) above, with V600E counted along it
Sequence of RAF1 (CRAF) (P04049 342-648 limits assumed): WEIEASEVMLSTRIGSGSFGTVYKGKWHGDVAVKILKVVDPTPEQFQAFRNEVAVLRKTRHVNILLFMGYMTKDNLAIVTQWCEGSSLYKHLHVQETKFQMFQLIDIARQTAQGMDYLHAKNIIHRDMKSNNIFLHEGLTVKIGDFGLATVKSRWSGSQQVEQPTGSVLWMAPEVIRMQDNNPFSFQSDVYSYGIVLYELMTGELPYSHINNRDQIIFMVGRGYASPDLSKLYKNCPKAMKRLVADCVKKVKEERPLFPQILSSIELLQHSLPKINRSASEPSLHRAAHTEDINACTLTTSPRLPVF
Sequence of ErbB4 (HER4) (Q15303 26-1308): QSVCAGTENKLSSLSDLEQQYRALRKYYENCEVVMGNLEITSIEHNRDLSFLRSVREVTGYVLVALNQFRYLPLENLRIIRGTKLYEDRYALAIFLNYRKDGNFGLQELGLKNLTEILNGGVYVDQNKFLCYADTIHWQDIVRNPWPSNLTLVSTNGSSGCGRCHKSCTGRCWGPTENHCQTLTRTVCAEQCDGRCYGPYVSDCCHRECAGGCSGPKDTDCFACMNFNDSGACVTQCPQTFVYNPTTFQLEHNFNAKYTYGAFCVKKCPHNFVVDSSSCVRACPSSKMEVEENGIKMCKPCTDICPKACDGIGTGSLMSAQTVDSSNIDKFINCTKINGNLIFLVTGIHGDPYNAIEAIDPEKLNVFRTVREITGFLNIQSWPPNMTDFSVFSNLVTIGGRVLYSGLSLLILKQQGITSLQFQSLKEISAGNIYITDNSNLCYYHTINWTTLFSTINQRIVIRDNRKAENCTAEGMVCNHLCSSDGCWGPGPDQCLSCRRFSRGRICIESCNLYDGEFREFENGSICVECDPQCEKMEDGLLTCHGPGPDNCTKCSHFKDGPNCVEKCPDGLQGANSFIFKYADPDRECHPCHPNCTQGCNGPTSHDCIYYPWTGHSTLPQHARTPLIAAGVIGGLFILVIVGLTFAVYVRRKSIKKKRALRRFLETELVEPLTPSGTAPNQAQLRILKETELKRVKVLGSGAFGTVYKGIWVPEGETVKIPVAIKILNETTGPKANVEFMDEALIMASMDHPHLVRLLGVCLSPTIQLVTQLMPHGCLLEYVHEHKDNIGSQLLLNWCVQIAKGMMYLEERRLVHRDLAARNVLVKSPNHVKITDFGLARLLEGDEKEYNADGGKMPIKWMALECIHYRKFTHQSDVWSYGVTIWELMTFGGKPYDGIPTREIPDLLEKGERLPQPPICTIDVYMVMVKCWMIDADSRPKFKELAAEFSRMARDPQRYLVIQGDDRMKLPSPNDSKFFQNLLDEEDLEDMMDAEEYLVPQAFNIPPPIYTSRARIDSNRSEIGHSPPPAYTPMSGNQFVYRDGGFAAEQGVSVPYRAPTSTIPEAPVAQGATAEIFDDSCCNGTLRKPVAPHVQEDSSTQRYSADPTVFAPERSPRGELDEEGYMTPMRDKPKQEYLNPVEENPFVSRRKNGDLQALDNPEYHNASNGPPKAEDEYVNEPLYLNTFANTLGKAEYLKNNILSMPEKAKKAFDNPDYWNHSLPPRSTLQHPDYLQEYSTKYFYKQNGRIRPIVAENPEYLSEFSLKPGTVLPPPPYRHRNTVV
Sequence of LCK (P06239 whole entry): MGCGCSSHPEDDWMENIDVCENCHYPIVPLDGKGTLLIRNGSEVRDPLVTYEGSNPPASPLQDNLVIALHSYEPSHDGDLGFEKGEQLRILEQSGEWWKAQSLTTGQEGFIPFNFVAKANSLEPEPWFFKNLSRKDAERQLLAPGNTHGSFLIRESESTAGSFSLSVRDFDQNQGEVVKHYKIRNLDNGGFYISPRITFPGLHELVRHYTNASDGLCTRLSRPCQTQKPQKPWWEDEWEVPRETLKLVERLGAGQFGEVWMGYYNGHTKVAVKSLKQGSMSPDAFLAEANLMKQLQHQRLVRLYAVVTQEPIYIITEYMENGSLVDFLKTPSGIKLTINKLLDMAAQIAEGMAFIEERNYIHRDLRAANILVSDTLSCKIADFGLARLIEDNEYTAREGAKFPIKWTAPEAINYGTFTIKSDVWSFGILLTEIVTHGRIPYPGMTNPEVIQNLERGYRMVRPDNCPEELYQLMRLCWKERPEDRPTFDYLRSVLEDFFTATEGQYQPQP
Protocol for A549: as §2
Protocol for PC-3: as §2
Protocol for in vitro: as §2

Take `O=C(Nc1ccccc1)Nc1ccc(Oc2ncnc3[nH]ncc23)cc1` [Compound 1e, 1-(4-((1H-Pyrazolo[3,4-d]pyrimidin-4-yl)oxy)phenyl)-3-phenylurea]: the melting point lay in the range of 247.3 to 249.2 °C. This compound also came in with an IC50 at 48 h in “in vitro” above 80 µM. This compound also returned an IC50 with PC-3 above 80 µM. In addition, the IC50 in the series on A549 is above 80 µM. In addition, the IC50 in the series on A375 was above 80 µM. The IC50 in the series with HT-29 is above 80 µM. Moreover, on BRAF^V600E (setting [4]), the “BRAF^V600E (%) inhibition at 1000 nM” value is “no inhibitory activity” and the inhibition at 1 µM was 1%.

The compound `Cn1ncc2c(Oc3ccc(NC(=O)Nc4ccc(Cl)c(C(F)(F)F)c4)cc3)ncnc21` [Compound 1v, 1-(4-Chloro-3-(trifluoromethyl)phenyl)-3-(4-((1-methyl-1H-pyrazolo[3,4-d]pyrimidin-4-yl)oxy)phenyl)urea] yielded a melting point of 212.1 to 213 °C. In addition, the “Inhibition % at 1 μΜ, ALK” value on ALK was 7%. Also, the “Inhibition % at 1 μΜ, ErbB4 (HER4)” value on ErbB4 (HER4) is recorded as 7%. In addition, the “Inhibition % at 1 μΜ, LTK (TYK1)” value at LTK (TYK1) is given as 3%. On MST1R (RON), the “Inhibition % at 1 μΜ, MST1R (RON)” value is on record as −2%. Further, the “Inhibition % at 1 μΜ, FLT1 (VEGFR1)” value on FLT1 (VEGFR1) is recorded as 31%. Moreover, at VEGFR-2, the “Inhibition % at 1 μΜ, VEGFR-2” value is listed as 56%. Further, the “Inhibition % at 1 μΜ, LCK” value on LCK stood at 20%. Moreover, the “Inhibition % at 1 μΜ, ErbB2 (HER2)” value on ErbB2 (HER2) is given as −7%. In addition, on EPHA2, the “Inhibition % at 1 μΜ, EPHA2” value was found to be 2%. The compound further displayed a concentration for half-maximal inhibition (IC50) in the series with PC-3 of 23.4 µM. Also, the “Inhibition % at 1 μΜ, PTK2 (FAK)” value at PTK2 (FAK) amounted to 13%. In the series with A375 cell line (A375, 6.11 μmol/L), the “G0/G1 (%)” value is listed as 42.53%, the “G2/M (%)” value was found to be 10.94%, the “S (%)” value stood at 38.25% and the “Sub-G1 (%)” value came to 4.39%. Further, in the series on A375 cell line (A375, 12.21 μmol/L), the “G0/G1 (%)” value amounted to 47.94%, the “G2/M (%)” value is recorded as 7.39%, the “S (%)” value is recorded as 38.13% and the “Sub-G1 (%)” value was 2.12%. Moreover, in the series with A375 cell line (A375, 24.42 μmol/L), the “G0/G1 (%)” value worked out at 52.73%, the “G2/M (%)” value stood at 5.48%, the “S (%)” value turned out to be 36.19% and the “Sub-G1 (%)” value was determined as 5.48%. Also, the “effect on cell cycle progression” value in the series with A375 cell line (A375, 48 h, G0/G1 phase) is “dose-dependent cell cycle arrest”. At FLT4 (VEGFR3), the “Inhibition % at 1 μΜ, FLT4 (VEGFR3)” value was 58%. The “Inhibition % at 1 μΜ, AURKA (Aurora A)” value on AURKA (Aurora A) was found to be 17%. Also, at AURKB (Aurora B), the “Inhibition % at 1 μΜ, AURKB (Aurora B)” value was 42%. Moreover, the “Inhibition % at 1 μΜ, ABL1” value at ABL1 stood at 5%. Also, in the series on A549, the IC50 turned out to be 12.5 µM. For the same compound, the “Inhibition % at 1 μΜ, EGFR (ErbB1)” value at EGFR (ErbB1) came out at 8%. Also, on RAF1 (CRAF) (1 μΜ), the “Inhibition % at 1 μΜ, RAF1 (CRAF)” value was found to be 102%. Besides, on RAF1 (CRAF) (in parentheses in Table 4, read-out: C-RAF IC50), the IC50 was 8.5 nM. Also, the “phosphor-MEK levels (western blot)” value in series [1] is “suppressed phosphor-MEK levels in a concentration-dependent manner”. Also, on MET (c-Met), the “Inhibition % at 1 μΜ, MET (c-Met)” value turned out to be 6%. Moreover, on ABL2 (Arg), the “Inhibition % at 1 μΜ, ABL2 (Arg)” value worked out at 4%. For the same compound, in [2], the IC50 at 48 h is above 80 µM. This compound came in with an IC50 in the series with A375 of 12.2 µM. Moreover, the “Inhibition % at 1 μΜ, BRAF (wt)” value at BRAF (wt) (1 μΜ) amounted to 105%. On BRAF (wt) (in parentheses in Table 4, read-out: wild-type BRAF IC50), the IC50 stood at 51.5 nM. Besides, the “phosphor-MEK levels (western blot)” value in series [3] is listed as “suppressed phosphor-MEK levels in a concentration-dependent manner”. This compound registered an IC50 in the series with HT-29 of 14.7 µM. The compound also had an inhibition at 0.1 µM on BRAF^V600E (setting [5]) of 81%. On BRAF^V600E (setting [4]), the inhibition at 1 µM came out at 97%. The IC50 on BRAF^V600E (ten concentrations 1000 to 0.0508 nM, two independent experiments) amounted to 23.6 nM.

Compound `Cc1cccc(NC(=O)Nc2ccc(Oc3ncnc4[nH]ncc34)cc2)c1C` [Compound 1h, 1-(4-((1H-Pyrazolo[3,4-d]pyrimidin-4-yl)oxy)phenyl)-3-(2,3-dimethylphenyl)urea] came in with a melting point of 250.4 to 252.3 °C. The compound further had an IC50 at 48 h in the series “in vitro” above 80 µM. Further, the concentration for half-maximal inhibition (IC50) with PC-3 stood at 11.7 µM. The IC50 in the series on A549 was above 80 µM. Moreover, in the series on A375, the IC50 is above 80 µM. This compound also returned an IC50 in the series on HT-29 above 80 µM. 1 µM produced 27% inhibition at BRAF^V600E (setting [4]).

`O=C(Nc1ccc(Oc2ncnc3[nH]ncc23)cc1)Nc1cccc([N+](=O)[O-])c1` [Compound 1m, 1-(4-((1H-Pyrazolo[3,4-d]pyrimidin-4-yl)oxy)phenyl)-3-(3-nitrophenyl)urea] gave a melting point of 229.2 to 231.4 °C. The same compound yielded an IC50 with PC-3 of 23.4 µM. Besides, the IC50 in the series on A549 is above 80 µM. The IC50 at 48 h in [2] was above 80 µM. Besides, the IC50 with A375 stood at 64 µM. This compound showed a half-maximal inhibitory concentration (IC50) in the series on HT-29 of 31.7 µM. This compound also had an inhibition at 0.1 µM at BRAF^V600E (setting [5]) of 3%. At BRAF^V600E (setting [4]), this compound registered an inhibition at 1 µM of 62%.

Consider `O=C(Nc1ccc(Oc2ncnc3[nH]ncc23)cc1)Nc1ccc(Cl)c(C(F)(F)F)c1` [Compound 1a, 1-(4-((1H-Pyrazolo[3,4-d]pyrimidin-4-yl)oxy)phenyl)-3-(4-chloro-3-(trifluoromet-hyl)phenyl)urea], for which it took 17.8 µM to reach half-maximal inhibition in “in vitro” (IC50 at 48 h). In addition, the IC50 is 19.5 µM in the series with PC-3, 19.8 µM in the series with A549, 29.3 µM in the series with A375 and above 80 µM in the series on HT-29. This compound displayed an inhibition at 0.1 µM against BRAF^V600E (setting [5]) of 37%. Besides, the inhibition at 1 µM against BRAF^V600E (setting [4]) came out at 90%.
